Source: ChEMBL document CHEMBL3885861, “Open TG-GATES”

Species on record: Rattus norvegicus
Assay: Open TG-GATES - Regimen: Daily Repeat
Format: toxicity, organism-based, Sprague-Dawley
Set-up: regimen Daily Repeat, gender Male, age 6 weeks
Conditions: in vivo, po, route gavage; for APTT / Bas / Eos / Fbg / Hb / Ht / Lym / MCH / MCHC / MCV / Mono / Neu / PT / Plat / RBC / Ret / WBC: tissue Blood; for KIDNEY_L / KIDNEY_R / KIDNEY_TOTAL: tissue Kidney; for LIVER: tissue Liver; for A/G / ALP / ALT / AST / BUN / CRE / Ca / Cl / DBIL / GLC / IP / K / LDH / Na / PL / RALB / TBIL / TC / TG / TP / gamma-GTP: tissue Plasma
[1] = 50 mg/kg, 72 h, dose level Middle, time 3 day
[2] = 50 mg/kg, […], dose level Middle, time 7 day
[3] = 50 mg/kg, […], dose level Middle, time 14 day
[4] = 50 mg/kg, […], dose level Middle, time 28 day
[5] = 150 mg/kg, 72 h, dose level High, time 3 day
[6] = 150 mg/kg, […], dose level High, time 7 day
[7] = 150 mg/kg, […], dose level High, time 14 day
[8] = 150 mg/kg, […], dose level High, time 28 day

## CN(C)CCC=C1c2ccccc2CCc2ccccc21 [AMITRIPTYLINE]
[1]
  TERMINAL_BW: 221 g
  APTT: 16.6 s
  Bas: 0.2%
  Eos: 1%
  Fbg: 279.2 mg/dL
  Hb: 13.3 g/dL
  Ht: 40%
  Lym: 80.2%
  MCH: 21 pg
  MCHC: 33.3%
  MCV: 63.1 fL
  Mono: 2.6%
  Neu: 15.6%
  PT: 16.3 s
  Plat: 120.1 x10_4/uL
  RBC: 634.6 x10_4/ul
  Ret: 6%
  WBC: 115.2 x10_2/uL
  KIDNEY_L: 0.9 g
  KIDNEY_R: 0.9 g
  KIDNEY_TOTAL: 1.8 g
  LIVER: 10.1 g
  A/G: 0.8
  ALP: 1628.8 IU/L
  ALT: 49.4 IU/L
  AST: 67.6 IU/L
  BUN: 16 mg/dL
  CRE: 0.2 mg/dL
  Ca: 10.9 mg/dL
  Cl: 105.6 meq/L
  DBIL: 0.02 mg/dL
  GLC: 180.6 mg/dL
  IP: 7.8 mg/dL
  K: 4.4 meq/L
  LDH: 62.8 IU/L
  Na: 143.8 meq/L
  PL: 158.4 mg/dL
  RALB: 2.6 g/dL
  TBIL: 0.048 mg/dL
  TC: 87 mg/dL
  TG: 98.8 mg/dL
  TP: 5.8 g/dL
  gamma-GTP: 0.8 IU/L
[2]
  TERMINAL_BW: 255.7 g
  APTT: 15 s
  Bas: 0.4%
  Eos: 1%
  Fbg: 280.6 mg/dL
  Hb: 13.2 g/dL
  Ht: 40%
  Lym: 74.8%
  MCH: 20.7 pg
  MCHC: 33%
  MCV: 62.7 fL
  Mono: 2.8%
  Neu: 20.4%
  PT: 15.5 s
  Plat: 108.4 x10_4/uL
  RBC: 638 x10_4/ul
  Ret: 5.2%
  WBC: 119.8 x10_2/uL
  KIDNEY_L: 1.1 g
  KIDNEY_R: 1.1 g
  KIDNEY_TOTAL: 2.1 g
  LIVER: 11.1 g
  A/G: 0.8
  ALP: 1561.4 IU/L
  ALT: 47.4 IU/L
  AST: 69 IU/L
  BUN: 15.8 mg/dL
  CRE: 0.2 mg/dL
  Ca: 10.9 mg/dL
  Cl: 104.6 meq/L
  DBIL: 0.012 mg/dL
  GLC: 187 mg/dL
  IP: 7.3 mg/dL
  K: 3.8 meq/L
  LDH: 66.4 IU/L
  Na: 143.6 meq/L
  PL: 156.4 mg/dL
  RALB: 2.6 g/dL
  TBIL: 0.046 mg/dL
  TC: 80.4 mg/dL
  TG: 114 mg/dL
  TP: 5.8 g/dL
  gamma-GTP: 1 IU/L
[3]
  TERMINAL_BW: 305.2 g
  APTT: 16.5 s
  Bas: 0.2%
  Eos: 1%
  Fbg: 299 mg/dL
  Hb: 14.4 g/dL
  Ht: 43.2%
  Lym: 77.2%
  MCH: 20.2 pg
  MCHC: 33.4%
  MCV: 60.5 fL
  Mono: 2.8%
  Neu: 18.2%
  PT: 16.2 s
  Plat: 111 x10_4/uL
  RBC: 713.6 x10_4/ul
  Ret: 4%
  WBC: 107.8 x10_2/uL
  KIDNEY_L: 1.2 g
  KIDNEY_R: 1.2 g
  KIDNEY_TOTAL: 2.3 g
  LIVER: 12.6 g
  A/G: 0.8
  ALP: 1627.8 IU/L
  ALT: 43.4 IU/L
  AST: 69.6 IU/L
  BUN: 17 mg/dL
  CRE: 0.2 mg/dL
  Ca: 11 mg/dL
  Cl: 105.4 meq/L
  DBIL: 0.022 mg/dL
  GLC: 186.6 mg/dL
  IP: 7.2 mg/dL
  K: 4 meq/L
  LDH: 72.6 IU/L
  Na: 143.6 meq/L
  PL: 156.2 mg/dL
  RALB: 2.7 g/dL
  TBIL: 0.05 mg/dL
  TC: 77.4 mg/dL
  TG: 145.2 mg/dL
  TP: 6 g/dL
  gamma-GTP: 0.6 IU/L
[4]
  TERMINAL_BW: 359.5 g
  APTT: 20.1 s
  Bas: 0.8%
  Eos: 0.8%
  Fbg: 289.6 mg/dL
  Hb: 15.6 g/dL
  Ht: 45%
  Lym: 80.6%
  MCH: 19.6 pg
  MCHC: 34.6%
  MCV: 56.5 fL
  Mono: 2.4%
  Neu: 14.8%
  PT: 16.6 s
  Plat: 101.5 x10_4/uL
  RBC: 797.2 x10_4/ul
  Ret: 2.1%
  WBC: 134.2 x10_2/uL
  KIDNEY_L: 1.4 g
  KIDNEY_R: 1.4 g
  KIDNEY_TOTAL: 2.7 g
  LIVER: 14.2 g
  A/G: 0.8
  ALP: 1098.4 IU/L
  ALT: 40.8 IU/L
  AST: 61.8 IU/L
  BUN: 17.2 mg/dL
  CRE: 0.2 mg/dL
  Ca: 10.3 mg/dL
  Cl: 104.2 meq/L
  DBIL: 0.018 mg/dL
  GLC: 186.6 mg/dL
  IP: 6.3 mg/dL
  K: 4 meq/L
  LDH: 62.4 IU/L
  Na: 141.6 meq/L
  PL: 139.8 mg/dL
  RALB: 2.8 g/dL
  TBIL: 0.058 mg/dL
  TC: 71.4 mg/dL
  TG: 108 mg/dL
  TP: 6.3 g/dL
  gamma-GTP: 0.6 IU/L
[5]
  TERMINAL_BW: 200.8 g
  APTT: 15 s
  Bas: 0.2%
  Eos: 1.2%
  Fbg: 288.6 mg/dL
  Hb: 14.4 g/dL
  Ht: 43.5%
  Lym: 79.6%
  MCH: 20.5 pg
  MCHC: 33.2%
  MCV: 61.8 fL
  Mono: 2.4%
  Neu: 16.2%
  PT: 16 s
  Plat: 125 x10_4/uL
  RBC: 705 x10_4/ul
  Ret: 4.5%
  WBC: 87.2 x10_2/uL
  KIDNEY_L: 0.9 g
  KIDNEY_R: 0.9 g
  KIDNEY_TOTAL: 1.8 g
  LIVER: 9.1 g
  A/G: 0.8
  ALP: 1755.4 IU/L
  ALT: 45.4 IU/L
  AST: 63 IU/L
  BUN: 13.8 mg/dL
  CRE: 0.2 mg/dL
  Ca: 10.7 mg/dL
  Cl: 106.2 meq/L
  DBIL: 0.016 mg/dL
  GLC: 174.4 mg/dL
  IP: 8 mg/dL
  K: 4.4 meq/L
  LDH: 86.2 IU/L
  Na: 143.8 meq/L
  PL: 155.8 mg/dL
  RALB: 2.6 g/dL
  TBIL: 0.052 mg/dL
  TC: 94.2 mg/dL
  TG: 93 mg/dL
  TP: 5.8 g/dL
  gamma-GTP: 0.6 IU/L
[6]
  TERMINAL_BW: 206.8 g
  APTT: 16.2 s
  Bas: 0%
  Eos: 1.4%
  Fbg: 413.4 mg/dL
  Hb: 15.3 g/dL
  Ht: 45.5%
  Lym: 70.8%
  MCH: 20.6 pg
  MCHC: 33.5%
  MCV: 61.6 fL
  Mono: 2.4%
  Neu: 24.6%
  PT: 15.9 s
  Plat: 108.8 x10_4/uL
  RBC: 740.8 x10_4/ul
  Ret: 3.1%
  WBC: 99.3 x10_2/uL
  KIDNEY_L: 0.9 g
  KIDNEY_R: 1 g
  KIDNEY_TOTAL: 1.9 g
  LIVER: 9.5 g
  A/G: 0.8
  ALP: 1572.2 IU/L
  ALT: 42.6 IU/L
  AST: 64.2 IU/L
  BUN: 14.4 mg/dL
  CRE: 0.2 mg/dL
  Ca: 10.6 mg/dL
  Cl: 104.8 meq/L
  DBIL: 0.008 mg/dL
  GLC: 169.2 mg/dL
  IP: 8 mg/dL
  K: 4.1 meq/L
  LDH: 68.2 IU/L
  Na: 143.8 meq/L
  PL: 144.6 mg/dL
  RALB: 2.7 g/dL
  TBIL: 0.042 mg/dL
  TC: 97 mg/dL
  TG: 29.6 mg/dL
  TP: 5.9 g/dL
  gamma-GTP: 0.8 IU/L
[7]
  TERMINAL_BW: 250.8 g
  APTT: 16.2 s
  Bas: 0.6%
  Eos: 0.8%
  Fbg: 326.6 mg/dL
  Hb: 15 g/dL
  Ht: 44.7%
  Lym: 76.6%
  MCH: 19.7 pg
  MCHC: 33.6%
  MCV: 58.6 fL
  Mono: 2.4%
  Neu: 19.2%
  PT: 16.6 s
  Plat: 110.7 x10_4/uL
  RBC: 763.4 x10_4/ul
  Ret: 2.8%
  WBC: 128.1 x10_2/uL
  KIDNEY_L: 1 g
  KIDNEY_R: 1 g
  KIDNEY_TOTAL: 2 g
  LIVER: 12.8 g
  A/G: 0.8
  ALP: 1690.2 IU/L
  ALT: 39.8 IU/L
  AST: 59.2 IU/L
  BUN: 15.8 mg/dL
  CRE: 0.2 mg/dL
  Ca: 10.9 mg/dL
  Cl: 104 meq/L
  DBIL: 0.012 mg/dL
  GLC: 164.2 mg/dL
  IP: 7.6 mg/dL
  K: 4.3 meq/L
  LDH: 51.2 IU/L
  Na: 143.6 meq/L
  PL: 135 mg/dL
  RALB: 2.6 g/dL
  TBIL: 0.042 mg/dL
  TC: 78.6 mg/dL
  TG: 62.8 mg/dL
  TP: 6 g/dL
  gamma-GTP: 0.6 IU/L
[8]
  TERMINAL_BW: 303.4 g
  APTT: 22.2 s
  Bas: 0.3%
  Eos: 1%
  Fbg: 311.3 mg/dL
  Hb: 15.8 g/dL
  Ht: 46.1%
  Lym: 82%
  MCH: 19.1 pg
  MCHC: 34.3%
  MCV: 55.9 fL
  Mono: 1.7%
  Neu: 14%
  PT: 16.4 s
  Plat: 97.9 x10_4/uL
  RBC: 824.3 x10_4/ul
  Ret: 2%
  WBC: 104.7 x10_2/uL
  KIDNEY_L: 1.2 g
  KIDNEY_R: 1.2 g
  KIDNEY_TOTAL: 2.4 g
  LIVER: 16.8 g
  A/G: 0.9
  ALP: 1692.3 IU/L
  ALT: 39.7 IU/L
  AST: 57.7 IU/L
  BUN: 14.7 mg/dL
  CRE: 0.2 mg/dL
  Ca: 10.7 mg/dL
  Cl: 103.7 meq/L
  DBIL: 0.0167 mg/dL
  GLC: 174 mg/dL
  IP: 7.1 mg/dL
  K: 4 meq/L
  LDH: 50 IU/L
  Na: 143 meq/L
  PL: 97.7 mg/dL
  RALB: 2.9 g/dL
  TBIL: 0.0467 mg/dL
  TC: 56.3 mg/dL
  TG: 35.3 mg/dL
  TP: 6.3 g/dL
  gamma-GTP: 0.7 IU/L
